Patent publication US20240166622A1, “FLUORINATED QUINOLINE, QUINOXALINE AND BENZO[B][1,4]OXAZINE DERIVATIVES AS DIHYDROOROTATE DEHYDROGENASE (DHODH) INHIBITORS FOR THE TREATMENT OF CANCER, AUTOIMMUNE AND INFLAMMATORY DISEASES” (Janssen Biotech, Inc., priority 2019, published 2024)

How the values were obtained:
[1] = test system: MOLM-13 cells; assay: MOLM-13 Cellular Assay; assay type: cell-based; conditions: Homo sapiens, 72 hours, cell viability by CellTiter-Glo
Procedure: MOLM-13 cells were obtained from DSMZ and were maintained in RPMI 1640+Glutamax+25 mM HEPES (Invitrogen, catalog number 72400) supplemented with 10% heat inactivated fetal bovine serum (FBS; Invitrogen, catalog number 16140). The day prior to assay set-up, cells were pelleted, resuspended in fresh media, counted, and cells were plated at 0.4×10^6 cell/mL in a T150 flask. On the day of the assay, cells were pelleted, resuspend in fresh media, counted, and seeded at 5,000 cells/well in white opaque 96-well tissue culture treated microplates (Perkin Elmer, catalog number 6005680). Cells were exposed to different concentrations of test compounds at 37° C., 5% CO2 for 72 hours immediately after seeding. Cell viability was acquired on a Perkin Elmer Envision 2104 multilabel reader using the CellTiter-Glo assay (Promega) according to the manufacturer's instructions.

[2] = biological target: human DHODH (Homo sapiens (Human), UniProt Q02127); assay: DHODH Enzymatic Assay; assay type: biochemical; conditions: purified human DHODH, DCIP absorbance, end-point mode
Sequence of human DHODH (Q02127 whole entry): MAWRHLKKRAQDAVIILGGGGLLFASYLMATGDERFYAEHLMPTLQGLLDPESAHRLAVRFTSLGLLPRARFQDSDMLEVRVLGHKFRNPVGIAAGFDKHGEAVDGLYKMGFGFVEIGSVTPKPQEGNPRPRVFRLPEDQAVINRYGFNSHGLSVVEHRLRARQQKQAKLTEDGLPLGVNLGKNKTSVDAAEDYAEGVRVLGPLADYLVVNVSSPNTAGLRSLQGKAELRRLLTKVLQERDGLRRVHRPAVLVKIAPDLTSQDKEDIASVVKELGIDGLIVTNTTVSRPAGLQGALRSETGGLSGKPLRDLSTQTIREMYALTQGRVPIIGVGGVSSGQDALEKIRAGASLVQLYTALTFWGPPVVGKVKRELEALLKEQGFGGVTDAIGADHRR
Procedure: To detect DHODH enzyme activities, dichloroindophenol (DCIP) is added as the final electron acceptor in the assay. DCIP can accept electrons from the reduced coenzyme Q generated in the assay, or from dihydroorotate (DHO) via FMN by binding presumably to the ubiquinone pocket. […] The assay buffer contained […], pH 7.5, 150 mM NaCl, 0.5 mM EDTA, and 0.1% Triton X-100 in MilliQ water. Substrate consisting of 20 mM DHO, 5 mM CoQ6, and 1 mM DCIP in assay buffer, initiates the reaction. […] Absorbance measurements were obtained using the BMG Phera Star plate-reading spectrophotomer. Purified human DHODH was purchased from Proteros (cat. No. PR-0044). Chemicals were purchased from Sigma-Aldrich, Teknova, and Avanti Polar Lipids. Liquid handling was performed using Labcyte Echo and Formulatrix Tempest.

SMILES: CCn1c(CO)nn(-c2cc3c(cc2F)C(=O)C(C)(c2ccccc2C)CN3C(C)C)c1=O (racemic) [Example 19, Racemic 7-(4-Ethyl-3-(hydroxymethyl)-5-oxo-4,5-dihydro-1H-1,2,4-triazol-1-yl)-6-fluoro-1-isopropyl-3-methyl-3-(o-tolyl)-23-dihydroquinolin-4(1H)-one]
- IC50 [1]: 4 nM
- IC50 [2]: 7.06 nM
